From ChEMBL document CHEMBL6092135, “Current development and structure-activity relationship study of berberine derivatives” (Bioorg Med Chem, 2024) come the findings set out here.

pIC50: −log10 of the molar value.

For one assay, the system named is Plasmodium falciparum. Kind of assay: Antiplasmodial activity against Plasmodium falciparum 3D7 assessed as inhibition of parasite growth measured for 42 hrs by SYBR Green staining based fluorescence analysis. Type of assay: functional, organism-based. As to conditions: 3D7, 42 h.
Assay [1] has as its system A549. The experiment in a line: Antiproliferative activity against human A549 cells assessed as reduction in cell viability incubated for 24 hrs by CCK-8 assay. Type of assay: functional, cell-based. As to conditions: A549, 24 h. (In general: Formazan colour is commonly taken as a measure of viable cells.)
In assay [2] the test system is HeLa. The experiment in a line: Anticancer activity against human HeLa cells. Type of assay: functional, cell-based.
Assay [3] relates to A549. Kind of assay: Anticancer activity against human A549 cells. Format: functional, cell-based.
The next assay has as its target DNA topoisomerase 1 (Homo sapiens, UniProt P11387). Kind of assay: Inhibition of Topoisomerase 1 (unknown origin).
A further assay relates to Escherichia coli. Kind of assay: Antibacterial activity against Escherichia coli ATCC 25922 assessed as bacterial growth inhibition measured after 48 hrs by resazurin assay. Format: functional. For orientation: The colour change of resazurin is a common sign of viable cells or microbes.
The next assay deals with Enterovirus A71. The experiment in a line: Antiviral activity against human EV71 infected in human RD cells assessed as inhibition of cytopathic effect by microscopy based analysis. Type of assay: functional, organism-based. The conditions noted are these: Enterovirus A. On the technique in general: Protection from cytopathic effect is a common read-out in antiviral testing.

The next assay relates to CCRF-CEM. The experiment in a line: Antiproliferative activity against human CEM cells assessed as reduction in cell viability measured after 3 to 4 days by MTT assay. Type of assay: functional, cell-based.
Assay [4] deals with Mycobacterium tuberculosis. The experiment in a line: Antimycobacterial activity against Mycobacterium tuberculosis H37Rv assessed as reduction in bacterial growth incubated for 7 days by resazurin based assay. Type of assay: functional. As to conditions: 168 h, time 7 day.
In another assay the test system is Coxsackievirus B3. The experiment in a line: Antiviral activity against Coxsackievirus B3 infected in human HEp-2 cells assessed as inhibition of virus-induced cytopathic effect measured after 48 hrs by MTT assay. Format: functional, organism-based. As to conditions: Enterovirus B, HEp-2, 48 h.
For another assay, the system named is Enterococcus faecalis. Kind of assay: Antibacterial activity against Enterococcus faecalis ATCC 29212 assessed as reduction in microbial growth after 16 hrs by broth microdilution method. Format: functional.
Another assay relates to Bacillus anthracis. The experiment in a line: Antibacterial activity against Bacillus anthracis. Format: functional.
In assay [5] the test system is Staphylococcus aureus. The experiment in a line: Antibacterial activity against Staphylococcus aureus ATCC 25923 assessed as reduction in bacterial growth incubated for 24 hrs by serial dilution method. Format: functional.
The test system of a further assay is Bacillus cereus. Kind of assay: Antibacterial activity against Bacillus cereus ATCC 27348 assessed as inhibition of bacterial growth incubated for 18 hrs by microdilution method. Type of assay: functional.
A further assay deals with Enterococcus faecium. Kind of assay: Antibacterial activity against Enterococcus faecium ATCC 19434 assessed as reduction in microbial growth measured after 24 hrs by two-fold serial dilution method. Format: functional.
In assay [6] the test system is Staphylococcus aureus. The experiment in a line: Antibacterial activity against Staphylococcus aureus ATCC 25923 assessed as reduction in microbial growth measured after 24 hrs by spectrophotometric method. Format: functional.
The nature of assay [7]: Antioxidant activity assessed as DPPH radical scavenging activity measured for 30 mins by spectrophotometric analysis. Type of assay: functional.
The subject of the next assay is Ca-Ski. Kind of assay: Cytotoxicity against human Ca-Ski cells assessed as reduction in cell viability measured after 48 hrs by SRB assay. Type of assay: functional, cell-based.
Assay [8] relates to HeLa. The experiment in a line: Cytotoxicity against human HeLa cells assessed as reduction in cell viability measured after 48 hrs by SRB assay. Format: functional, cell-based.

Chain of DNA topoisomerase 1 (P11387 whole entry): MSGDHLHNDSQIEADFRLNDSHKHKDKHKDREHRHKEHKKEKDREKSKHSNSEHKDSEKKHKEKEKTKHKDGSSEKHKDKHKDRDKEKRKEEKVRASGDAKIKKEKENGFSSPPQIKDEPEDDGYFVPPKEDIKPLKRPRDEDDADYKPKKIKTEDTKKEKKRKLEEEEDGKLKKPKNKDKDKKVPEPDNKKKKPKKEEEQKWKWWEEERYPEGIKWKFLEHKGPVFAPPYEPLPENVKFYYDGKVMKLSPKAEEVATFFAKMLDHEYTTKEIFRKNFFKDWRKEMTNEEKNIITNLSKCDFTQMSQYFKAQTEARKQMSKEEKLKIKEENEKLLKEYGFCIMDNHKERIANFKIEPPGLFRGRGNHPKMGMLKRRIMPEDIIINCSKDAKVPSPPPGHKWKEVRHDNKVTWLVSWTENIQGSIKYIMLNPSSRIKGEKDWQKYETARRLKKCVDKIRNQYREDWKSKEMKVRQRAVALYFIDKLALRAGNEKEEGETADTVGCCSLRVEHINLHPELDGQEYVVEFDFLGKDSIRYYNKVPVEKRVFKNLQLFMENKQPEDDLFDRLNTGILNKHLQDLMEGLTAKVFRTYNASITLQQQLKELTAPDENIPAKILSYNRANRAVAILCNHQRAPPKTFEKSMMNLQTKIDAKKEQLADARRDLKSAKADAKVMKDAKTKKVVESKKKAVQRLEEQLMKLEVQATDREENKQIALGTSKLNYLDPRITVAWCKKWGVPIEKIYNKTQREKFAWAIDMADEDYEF

For `COc1ccc2cc3[n+](cc2c1OCc1cn(-c2ccc(S(N)(=O)=O)cc2)nn1)CCc1cc2c(cc1-3)OCO2.[Cl-]`, the IC50 in the assay with Plasmodium falciparum is 0.2 µg/mL. Turning to `CCCCCCN(CCCCCC)c1cc(OC)c(O)c2c[n+]3c(cc12)-c1cc2c(cc1CC3)OCO2`, the pIC50 in the assay with A549 [1] was 6.54.

On to `COc1ccc2cc3[n+](cc2c1OCCn1cccn1)CCc1cc2c(cc1-3)OCO2`, for which the pIC50 with HeLa [2] and with A549 [3] was 5.05 each time.

On DNA topoisomerase 1, `COc1ccc2c(c1OS(=O)(=O)c1c(F)c(F)cc(F)c1F)CN1CCc3cc4c(cc3C1C2)OCO4` (configuration not stated) had a pIC50 of 5.98. On to `COc1ccc2c(c1NS(=O)(=O)c1ccc(Cl)cc1)C[N+]1(S(=O)(=O)c3ccc(Cl)cc3)CCc3cc4c(cc3C1C2)OCO4` (configuration not stated), for which the MIC in the assay with Escherichia coli came out at 0.5 µg/mL.

Take `COc1ccc2cc3[n+](cc2c1OCCn1nc(C)c(Cl)c1C)CCc1cc2c(cc1-3)OCO2`: the pIC50 in the assay with HeLa [2] and in the assay on A549 [3] was 5.05 each time. Turning to `COc1ccc2cc3[n+](cc2c1OCC(=O)OCc1ccccc1)CCc1cc2c(cc1-3)OCO2`, the negative logarithm of the IC50 (pIC50) in the assay with Enterovirus A71 is 5.15. On to `COc1ccc2c(CCCc3ccccc3)c3[n+](cc2c1OC)CCc1cc2c(cc1-3)OCO2`, for which, in the assay with CCRF-CEM, the pIC50 is 6.68. For `COc1ccc2cc3[n+](cc2c1OCCn1nc(C)cc1C)CCc1cc2c(cc1-3)OCO2`, the pIC50 in the assay on HeLa [2] and with A549 [3] was 5.05 each time. Consider `COc1ccc2cc3[n+](cc2c1OCCn1nc(C)c(Br)c1C)CCc1cc2c(cc1-3)OCO2`, for which the pIC50 with HeLa [2] and in the assay with A549 [3] was 5.05 throughout. Consider `CCCCCCC1c2cc(OC)c(OC)cc2C=C2c3cc4c(cc3CCN21)OCO4.Cl` (configuration not stated), for which, in assay [4], the MIC is 1 µg/mL. `COc1ccc2cc3[n+](cc2c1)CCc1cc(OCCOCCN)c(OC)cc1-3`: the pIC50 in the assay with Coxsackievirus B3 is 5.51. For the compound `COc1cc2c(cc1OC)C(c1ccccc1)N1CCc3cc4c(cc3C1=C2)OCO4.Cl` (configuration not stated), in assay [4], the MIC came to 1 µg/mL. As to `CCCCCOC(=O)COc1c(OC)ccc2cc3[n+](cc12)CCc1cc2c(cc1-3)OCO2`, in the assay with Enterovirus A71, the negative logarithm of the IC50 (pIC50) was 5.15. The same measure, in the same setting: in the case of `CCOC(=O)COc1c(OC)ccc2cc3[n+](cc12)CCc1cc2c(cc1-3)OCO2` it was 5.15.

For the compound `Br.COc1ccc2c(Cc3ccccc3-c3cc4cc([N+](=O)[O-])ccc4[nH]3)c3[n+](cc2c1OC)CCc1cc2c(cc1-3)OCO2`, the MIC in the assay with Enterococcus faecalis, in the assay with Bacillus anthracis, in the assay on Staphylococcus aureus [5], in the assay with Bacillus cereus and in the assay with Enterococcus faecium was 3.12 µg/mL in each case. Turning to `CCCOc1c(OC)cc(/C=C2\SC(=O)NC2=O)c2c1CN1CCc3cc4c(cc3C1C2)OCO4` (configuration not stated), the MIC in the assay on Staphylococcus aureus [6] was 0.008 µg/mL. Regarding `O=C1O[C@H]([C@@H](O)CO)C(O)=C1O` [ASCORBIC ACID], the pIC50 in assay [7] was 4.21. In the case of `COc1ccc2cc3[n+](cc2c1OC)CCc1cc2c(cc1-3)OCO2` [BERBERINE], the figures for the pIC50 (in the assay on Ca-Ski; in assay [7]; with HeLa [8]) were 4.82, 4.05 and 4.87, respectively. In addition, the MIC in the assay with Staphylococcus aureus [6] stood at 0.698 µg/mL. `N=C(N)c1ccc(-c2ccc(-c3ccc(C(=N)N)cc3)o2)cc1` [FURAMIDINE] had a pIC50 against DNA topoisomerase 1 of 5.92.

As for `CCn1cc(C(=O)O)c(=O)c2cc(F)c(N3CCNCC3)cc21` [NORFLOXACIN], the MIC with Staphylococcus aureus [6] worked out at 0.025 µg/mL.

A word on the IC50: it is the midpoint of a concentration-inhibition curve. One may read the pIC50 as the negative decadic logarithm of the IC50, by convention in mol/L. The term MIC denotes the smallest concentration in the dilution series that meets the test's criterion for growth inhibition.
